From patent US20250134895A1, “METHODS AND COMPOSITIONS FOR TREATING ALPHA-SYNUCLEIN-MEDIATED NEURODEGENERATION” (UNIVERSITY HEALTH NETWORK, priority 2021, published 2025)

How the values were obtained:
[1] = system: transgenic A30P α-synuclein C. elegans; experiment: Coiler score and locomotion of C. elegans expressing A30P α-synuclein in dopaminergic neurons; format: in vivo, Caenorhabditis elegans
Description: Using high-resolution, multi-worm tracking with custom image processing, methods were developed for semi-automated and blinded scoring of circularity for a population of simultaneously recorded animals (n=10 per recording). A coiler score was determined for the population tested by first calculating the circularity value for each animal in each frame of video and then calculating the proportion of circularity values >0.6. […] The coiler phenotype is an abnormal motor behaviour previously reported for several unc C. elegans strains with mutations affecting neuronal function.
Animals were synchronized by isolating eggs using alkaline hypochlorite treatment and hatching overnight. Larvae were plated onto NGM agar plates with OP50 and grown for 4 days before recording locomotion. For individual C. elegans recordings, a single adult animal was randomly picked, washed for 1 to 2 minutes in M9 buffer, and then transferred to a fresh NGM plate without food for imaging. Video images were acquired (2 frames per second) for up to 6 minutes using a sCMOS camera (pco.edge, PCO) mounted on a stereomicroscope (Olympus MVX10 MacroView) controlled using the μManager software.^55 A total of 40 individual animals were imaged for each strain. For C. elegans population recordings, ten adult animals were randomly removed using an eyelash pick, washed for 1 minute in M9 buffer, and then transferred to a fresh NGM plate without food, with a ring of copper sulfate solution (150 mM) around the area of recording (a chemorepellent to keep the animals in the recording frame). Exploratory locomotion was recorded using a CCD camera (GX1920, Allied Vision) which was attached to a dissecting stereomicroscope (Leica M165C, 1.0× PlanApo lens). A Labview program captured video (2 frames per second) at 1936×1456 resolution. Using ImageJ, the displacement, perimeter, and area of each animal was calculated, from which a circularity value was computed using the following formula: circularity=4π(A/P^2), where A is the area of the animal's body and P is the perimeter of the animal's body (both expressed in arbitrary pixel units). […] Using MATLAB (Mathworks), various behavioural metrics including the coiler score were calculated, which is the percentage of frames with a circularity value >0.6. Speed was automatically computed from the ImageJ based WrmTrk plugin as the distance travelled by each animal (in pixels) over the amount of time that it was tracked (in seconds).56 Average speed was determined by calculating the weighted average of each tracked animal's speed within a single population of animals. On the day of the recording for dopamine or raclopride treatment, adult animals were washed for 1 minute in M9 buffer, treated in a solution containing either drug for 1 minute, and then placed onto fresh NGM plates without food, with a copper sulfate solution ring around the area of recording. […] Drug plates were prepared by adding each drug to LB medium with OP50 before spreading onto fresh NGM plates. The solvent used to dissolve each drug was used as vehicle control for the drug treatment experiments (M9 buffer for dopamine, distilled water for raclopride, DMSO for all other drugs).
After 72 hours of drug treatment, animals were randomly picked, washed, and recorded. A total of ten worms were recorded per population, and twelve populations were recorded for each of the four treatment groups. Locomotion was recorded for each population over a total of 1800 frames over three minutes. The animal's movement speed, area, and perimeter were automatically analyzed as previously described. Coiler score was calculated automatically using a ratio of the animal's area to perimeter, where a higher coiler score would represent a greater degree of α-synuclein-induced dopaminergic neuron dysfunction in vivo.

[2] = system: α-synuclein protein; experiment: Immunoblot for α-synuclein protein in lysates of treated C. elegans; format: in vivo, Caenorhabditis elegans; conditions: 50 μM
From the text: The chaperone system is composed of chaperone proteins, such as HSP70 (heat shock protein 70), and co-chaperones. Together, these proteins are integral to maintaining cellular protein quality control by folding newly translated polypeptides into their native conformation, refolding misfolded proteins to prevent their aggregation, and targeting proteins to degradation pathways, such as the autophagy-lysosomal system or ubiquitin-proteasome system, when refolding is unsuccessful. From the above in vitro findings, it was predicted that perturbations to the chaperone system in vivo would affect coiling of the transgenic α-synuclein C. elegans. To test this prediction, we treated the animals were treated with the geldanamycin analogue, 17-(allylamino)-17-demethoxygeldanamycin (17-AAG). […]
Synchronized animals (4 or 5 days old) were lysed in 0.5X Tris-HCl buffer with 0.5% Triton X-100 at 100° C. for 5 minutes and then passed through a 23-gauge needle 10 times. […] Protein concentration was determined with a Bio-Rad Lowry protein assay (Bio-RAD, 5000116) according to the manufacturer's instructions. […] Beads were washed and samples were analysed by immunoblotting and mass spectrometry (see below). […] Signals were detected with ECL (ThermoFisher, 32132) and developed on HyBlot CL autoradiography film (DV-E3018).

[3] = system: H4 neuroglioma cells
Description: (§1) For controls in this assay, vehicle (i.e., DMSO), rapamycin, and bafilomycin A were used. Rapamycin, or sirolimus, is a small molecule that activates autophagy by inhibiting mTOR (mammalian target of rapamycin). […] To test this possibility, cells expressing α-synuclein were treated with each of the compounds and a cell permeable, resazurin-based assay was used to test for cell viability.
(§2) H4 neuroglioma cells (ATCC, HTB-148) were maintained in Dulbecco's Modified Eagle Medium plus high glucose, L-glutamine, and sodium pyruvate (ThermoFisher, 11995-065) with 10% heat-inactivated fetal bovine serum (ThermoFisher, 16140071) and 1% antibiotic-antimycotic cocktail (ThermoFisher, 15240062) at 37° C. and 5% CO2. DNA expression constructs encoding for full-length human α-synuclein fused to the N-terminal fragment of Gaussia princeps luciferase (syn-luc1), full-length human α-synuclein fused to the C-terminal fragment of Gaussia princeps luciferase (syn-luc2), and full-length Gaussia princeps luciferase were kindly provided by Dr. Pamela McLean, Mayo Clinic Jacksonville.^33 Cells were transiently co-transfected with syn-luc1 and syn-luc2 or transfected with luciferase alone using Superfect transfection reagent (Qiagen, 301305) according to the manufacturer's instructions. Twenty-four hours after transfection, cells were plated on a 96-well microplate at 60,000 cells per well. Twenty-four hours after plating, cells were treated with drugs or vehicle control. Following 24 hours of treatment, cells were washed 1 time with PBS and bioluminescence was measured using an automated CLARIOstar plate reader (Mandel, 430-0505). Cell permeable, native coelenterazine was used as the Gaussia luciferase substrate. Lyophilized coelenterazine (Nanolight, 303-500) was reconstituted in NanoFuel Solvent (Nanolight, 399-1), then diluted in PBS to 16.6 μg/mL, and dispensed per well to a final concentration of 20 μM). The bioluminescent signal generated by the luciferase enzyme was assessed at 470 nm over 5 seconds. Raw luminescence units were normalized to the DMSO vehicle control of each 96-well microplate. To assess cell viability, H4 neuroglioma cells were prepared and treated as described above and, 1 hour prior to viability analysis, cells were treated with PrestoBlue viability reagent (ThermoFisher, A13261) according to the manufacturer's instructions. Fluorescence was automatically measured using a CLARIOstar plate reader (Mandel, 430-0505) and then normalized to the fluorescence measure of the DMSO vehicle control.

[4] = system: full-length Gaussia princeps luciferase; experiment: Activity of full-length Gaussia luciferase alone in H4 cells; format: cell-based; conditions: Example 5, FIG. 5c
Description: as §1, §2

[5] = molecular target: T1, α-synuclein oligomers (Homo sapiens, UniProt P37840); experiment: Venus YFP protein-fragment complementation assay in rat primary cortical neurons; format: cell-based; conditions: 72 hours; losartan 100 μM, rapamycin 50 nM, rifabutin 20 μM
Description: Specifically, adeno-associated viral vectors (AAV) were used to co-express human α-synuclein tagged with the N- or C-terminal half of Venus yellow fluorescent protein (YFP) in rat cortical neurons.
Pregnant Sprague Dawley rats (E17) were purchased from Charles River. Embryos were surgically removed, and neurons were harvested in a sterile environment. Neurons were plated on poly-D-lysine coated glass coverslips at a density of 5×10^5 cells per well in Neurobasal-A medium, (Gibco, 10888022) supplemented with B27 (2%) (Gibco, 17504044), antibiotic-antimycotic (1%) (Gibco, 15240062), and Glutamax (1%) (Gibco, 35050061). Fifty percent media changes were performed every 3 days. […] Two days post isolation, neurons were co-transduced with AAV-V1 S and AAV-SV2 or transduced with AAV-Venus alone at a MOI of 3,000. […] Concentrations were selected to avoid neuron toxicity according to previous reports.^57-61 Drug-containing media was removed, and cells were washed 1 time with ice-cold PBS before being fixed with 4% PFA (Sigma) at room temperature for 10 minutes. Levels of α-synuclein oligomers were measured by YFP fluorescence. […] YFP fluorescence intensity was analysed automatically using Imaris imaging software (Oxford Instruments). […]

[6] = molecular target: T1, α-synuclein oligomers; experiment: Immunoblot of crosslinked split YFP-tagged α-synuclein oligomers in rat primary cortical neuron lysates; format: cell-based; set-up: full-length human α-synuclein fused to the N-terminal fragment of Venus YFP (V1 S); full-length human α-synuclein fused to the C-terminal fragment of Venus YFP (SV2); host or cells: rat (Sprague Dawley, E17) primary cortical neurons, AAV co-transduction; conditions: losartan 100 μM, rapamycin 50 nM, rifabutin 20 μM
Description: FIGS. 7A-7E. […] (a) Five positive hits were tested for their ability to reduce α-synuclein oligomer levels in rat primary cortical neurons measured with YFP-based protein-fragment complementation. […] Fluorescence intensity was analyzed using Imaris image analysis software by measuring the mean fluorescence intensity of α-synuclein positive neurons throughout a 3D field of view generated by z-stack image acquisition using the “surfaces” module. The value generated for each neuron was normalized to the mean fluorescence intensity of neurons treated with vehicle alone (N=3-4 replicates of n=10 fields of view for each treatment; each data point represents an individual replicate) (nested one-way ANOVA with Dunnett's post-hoc test, *p<0.05, *** p<0.001). […] Bottom: Representative fluorescent microscopy images of neurons treated with vehicle, losartan, rapamycin, or rifabutin and expressing YFP alone. Scale bars are […]. (e) Representative immunoblot to detect oligomers of split YFP-tagged α-synuclein (crosslinked) in rat primary cortical neuron lysates (actin used as a loading control).
Finally, it was examined whether these 5 compounds that had effects in our invertebrate C. elegans model reduce α-synuclein oligomers and α-synuclein-mediated dopaminergic neurodegeneration in mammalian systems.

[7] = molecular target: T1, α-synuclein oligomers; experiment: Gaussia luciferase protein-fragment complementation cell assay of α-synuclein oligomers in H4 neuroglioma cells; format: cell-based; set-up: full-length human α-synuclein fused to the N-terminal fragment of Gaussia princeps luciferase (syn-luc1); full-length human α-synuclein fused to the C-terminal fragment of Gaussia princeps luciferase (syn-luc2); expressed in transfected cells; host or cells: H4 neuroglioma cells (ATCC, HTB-148), transient co-transfection; conditions: 1 μM or 10 μM, 24 hours of treatment
Description: as §1, §2
We used a bioluminescent protein-fragment complementation assay in which human H4 neuroglioma cells co-express human α-synuclein tagged with the N- or C-terminal half of Gaussia princeps luciferase (FIG. 12). Reconstitution of a complete and active luciferase molecule from the fragments occurs upon α-synuclein oligomerization, and so luminescence provides an indirect measure of α-synuclein oligomer levels. H4 neuroglioma cells were co-transfected with α-syn luciferase fragments, and constructs were plated into a 96-well plate and treated with either 1 μM or 10 μM of each of the 19 drug compounds.

| Structure (SMILES) | reduced coiling compared with vehicle control ([1]; 50 μM) | α-synuclein protein levels [2] | changes in viability [3] | changes in the activity of full-length Gaussia luciferase alone [4] | reduction in coiling compared with vehicle alone (decrease) ([1]; 100 μM of drug, 3 days on drug plates) | decrease in fluorescence compared with vehicle alone [5] | α-synuclein oligomers as detected by immunoblotting [6] | decrease in luciferase activity compared with vehicle alone [7] |
| --- | --- | --- | --- | --- | --- | --- | --- | --- |
| C=CCNC1=C2C[C@@H](C)C[C@H](OC)[C@H](O)[C@@H](C)/C=C(\C)[C@H](OC(N)=O)[C@@H](OC)/C=C\C=C(/C)C(=O)NC(=CC1=O)C2=O [17-AAG, 17-(allylamino)-17-demethoxygeldanamycin] | 51% | lower |  |  |  |  |  |  |
| CCCCc1nc(Cl)c(CO)n1Cc1ccc(-c2ccccc2-c2nnn[nH]2)cc1 [Losartan, losartan] |  |  | No statistically significant changes | No statistically significant changes | 45% | 33% | reduction | 16% |
